In ChEMBL document CHEMBL1201862, “PubChem BioAssay data set” (2004):
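Protocol summary: plate cells (96-well), add compound at 5 concentrations, incubate 48 h, interpolate endpoints linearly. GI50 marks 50% less growth.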 The source made the active and inactive calls. No stated cut-off is given here; in the data, active = GI50 up to about 1.1 µM and inactive = higher.

Experiments:
Experiment in all cases: NCI anticancer screen, dose series, 48 h
[1] = test system: UO-31
[2] = test system: MDA-MB-231
[3] = test system: SF-539
[4] = test system: SK-MEL-28
[5] = test system: NCI-H226
[6] = test system: SW-620
[7] = test system: RXF 393
[8] = test system: A549
[9] = test system: HCT-116
[10] = test system: OVCAR-8
[11] = test system: LOX IMVI
[12] = test system: OVCAR-4
[13] = test system: OVCAR-3
[14] = test system: MOLT-4
[15] = test system: HT-29
[16] = test system: IGROV-1
[17] = test system: A498
[18] = test system: HOP-92
[19] = test system: EKVX
[20] = test system: M14
[21] = test system: SK-MEL-5
[22] = test system: CAKI-1
[23] = test system: CCRF-CEM
[24] = test system: SK-OV-3
[25] = test system: UACC-62
[26] = test system: HCC 2998
[27] = test system: BT-549
[28] = test system: RPMI-8226
[29] = test system: Malme-3M
[30] = test system: HL-60
[31] = test system: K562
[32] = test system: SK-MEL-2
[33] = test system: T47D
[34] = test system: NCI-H522
[35] = test system: MDA-N
[36] = test system: HCT-15
[37] = test system: OVCAR-5
[38] = test system: HOP-62
[39] = test system: SN12C
[40] = test system: SF-268
[41] = test system: UACC-257
[42] = test system: Hs-578T
[43] = test system: KM12
[44] = test system: 786-0
[45] = test system: NCI-H23
[46] = test system: SNB-19
[47] = test system: SNB-75
[48] = test system: NCI-H460
[49] = test system: DU-145
[50] = test system: MDA-MB-435
[51] = test system: U-251
[52] = test system: ACHN
[53] = test system: SF-295
[54] = test system: PC-3
[55] = test system: TK-10
[56] = test system: MCF7
[57] = test system: NCI/ADR-RES
[58] = test system: COLO 205
[59] = test system: SR

CC1=NNC(=O)[C@H]2[C@H]1CCC1[C@@H]2CC[C@]2(C)[C@@H](O)CC[C@@H]12 (some centres undefined)
GI50 [1]: > 100 µM (inactive)
GI50 [2]: > 100 µM (inactive)
GI50 [3]: > 100 µM (inactive)
GI50 [4]: > 100 µM (inactive)
GI50 [5]: > 100 µM (inactive)
GI50 [6]: > 100 µM (inactive)
GI50 [7]: > 100 µM (inactive)
GI50 [8]: > 100 µM (inactive)
GI50 [9]: > 100 µM (inactive)
GI50 [10]: > 100 µM (inactive)
GI50 [11]: > 100 µM (inactive)
GI50 [12]: > 100 µM (inactive)
GI50 [13]: > 100 µM (inactive)
GI50 [14]: > 100 µM (inactive)
GI50 [15]: > 100 µM (inactive)
GI50 [16]: > 100 µM (inactive)
GI50 [17]: > 100 µM (inactive)
GI50 [18]: > 100 µM (inactive)
GI50 [19]: > 100 µM (inactive)
GI50 [20]: > 100 µM (inactive)
GI50 [21]: > 100 µM (inactive)
GI50 [22]: > 100 µM (inactive)
GI50 [23]: > 100 µM (inactive)
GI50 [24]: > 100 µM (inactive)
GI50 [25]: > 100 µM (inactive)
GI50 [26]: > 100 µM (inactive)
GI50 [27]: > 100 µM (inactive)
GI50 [28]: > 100 µM (inactive)
GI50 [29]: > 100 µM (inactive)
GI50 [30]: > 100 µM (inactive)
GI50 [31]: > 100 µM (inactive)
GI50 [32]: > 100 µM (inactive)
GI50 [33]: > 100 µM (inactive)
GI50 [34]: > 100 µM (inactive)
GI50 [35]: > 100 µM (inactive)
GI50 [36]: > 100 µM
GI50 [37]: > 100 µM (inactive)
GI50 [38]: > 100 µM (inactive)
GI50 [39]: > 100 µM (inactive)
GI50 [40]: > 100 µM (inactive)
GI50 [41]: > 100 µM (inactive)
GI50 [42]: > 100 µM (inactive)
GI50 [43]: > 100 µM (inactive)
GI50 [44]: > 100 µM (inactive)
GI50 [45]: > 100 µM (inactive)
GI50 [46]: > 100 µM (inactive)
GI50 [47]: 12.6 µM (inactive)
GI50 [48]: > 100 µM (inactive)
GI50 [49]: > 100 µM (inactive)
GI50 [50]: > 100 µM (inactive)
GI50 [51]: > 100 µM (inactive)
GI50 [52]: > 100 µM (inactive)
GI50 [53]: > 100 µM (inactive)
GI50 [54]: > 100 µM (inactive)
GI50 [55]: > 100 µM (inactive)
GI50 [56]: > 100 µM (inactive)
GI50 [57]: > 100 µM (inactive)
GI50 [58]: > 100 µM (inactive)

CN(CCN1CCCC1)C1CCc2cc(Cl)c(Cl)cc2C1 (centres undefined)
GI50 [1]: 13.2 µM (inactive)
GI50 [2]: 17.6 µM (inactive)
GI50 [3]: 16.1 µM (inactive)
GI50 [4]: 18.5 µM (inactive)
GI50 [5]: 16.2 µM (inactive)
GI50 [6]: 23.9 µM (inactive)
GI50 [8]: 16.6 µM (inactive)
GI50 [9]: 12.5 µM (inactive)
GI50 [10]: 16.2 µM (inactive)
GI50 [11]: 15.1 µM (inactive)
GI50 [12]: 21.4 µM (inactive)
GI50 [13]: 17.1 µM (inactive)
GI50 [14]: 24.8 µM (inactive)
GI50 [15]: 10.4 µM (inactive)
GI50 [16]: 15.6 µM (inactive)
GI50 [17]: 13.2 µM (inactive)
GI50 [19]: 20.6 µM (inactive)
GI50 [20]: 15 µM (inactive)
GI50 [21]: 11.1 µM (inactive)
GI50 [22]: 17.3 µM (inactive)
GI50 [23]: 26.4 µM (inactive)
GI50 [24]: 17.5 µM (inactive)
GI50 [25]: 5.71 µM (inactive)
GI50 [26]: 5.47 µM (inactive)
GI50 [27]: 14.9 µM (inactive)
GI50 [28]: 17.2 µM (inactive)
GI50 [29]: 18.9 µM (inactive)
GI50 [30]: 12.6 µM (inactive)
GI50 [31]: 21.8 µM (inactive)
GI50 [32]: 17.9 µM (inactive)
GI50 [33]: 6.37 µM (inactive)
GI50 [34]: 17.2 µM (inactive)
GI50 [35]: 9.2 µM (inactive)
GI50 [36]: 13.2 µM
GI50 [37]: 15.3 µM (inactive)
GI50 [59]: 20.5 µM (inactive)
GI50 [38]: 17.4 µM (inactive)
GI50 [39]: 15.5 µM (inactive)
GI50 [40]: 17.1 µM (inactive)
GI50 [41]: 16.4 µM (inactive)
GI50 [42]: 29.9 µM (inactive)
GI50 [43]: 20.3 µM (inactive)
GI50 [44]: 14.7 µM (inactive)
GI50 [45]: 15 µM (inactive)
GI50 [46]: 19.7 µM (inactive)
GI50 [48]: 16.6 µM (inactive)
GI50 [49]: 13.2 µM (inactive)
GI50 [50]: 14.4 µM (inactive)
GI50 [51]: 16.1 µM (inactive)
GI50 [52]: 16.9 µM (inactive)
GI50 [53]: 15.7 µM (inactive)
GI50 [54]: 20 µM (inactive)
GI50 [55]: 17.1 µM (inactive)
GI50 [56]: 14.8 µM (inactive)
GI50 [57]: 12.4 µM (inactive)
GI50 [58]: 3.6 µM (inactive)

OC(CCN1CCN(CCOC(c2ccccc2)c2ccccc2)CC1)c1ccc(Br)cc1 (centres undefined)
GI50 [1]: 2.38 µM (inactive)
GI50 [2]: 11.7 µM (inactive)
GI50 [3]: 12.5 µM (inactive)
GI50 [4]: 7.69 µM (inactive)
GI50 [5]: 15 µM (inactive)
GI50 [6]: 16.8 µM (inactive)
GI50 [7]: 9.38 µM (inactive)
GI50 [8]: 14.9 µM (inactive)
GI50 [9]: 11.2 µM (inactive)
GI50 [10]: 6.25 µM (inactive)
GI50 [11]: 10 µM (inactive)
GI50 [12]: 12.6 µM (inactive)
GI50 [13]: 12.6 µM (inactive)
GI50 [15]: 4.27 µM (inactive)
GI50 [16]: 10.9 µM (inactive)
GI50 [17]: 3.72 µM (inactive)
GI50 [18]: 10.7 µM (inactive)
GI50 [19]: 11 µM (inactive)
GI50 [20]: 3.27 µM (inactive)
GI50 [21]: 3.53 µM (inactive)
GI50 [22]: 12.2 µM (inactive)
GI50 [23]: 12.7 µM (inactive)
GI50 [24]: 13.1 µM (inactive)
GI50 [25]: 10.6 µM (inactive)
GI50 [26]: 1.73 µM (inactive)
GI50 [27]: 13.3 µM (inactive)
GI50 [29]: 11.7 µM (inactive)
GI50 [30]: 10.1 µM (inactive)
GI50 [32]: 12.3 µM (inactive)
GI50 [33]: 10.4 µM (inactive)
GI50 [34]: 14.3 µM (inactive)
GI50 [35]: 10.9 µM (inactive)
GI50 [36]: 6.43 µM
GI50 [37]: 14.9 µM (inactive)
GI50 [38]: 15.1 µM (inactive)
GI50 [39]: 11.8 µM (inactive)
GI50 [40]: 14.8 µM (inactive)
GI50 [41]: 3.47 µM (inactive)
GI50 [42]: 16 µM (inactive)
GI50 [43]: 11.4 µM (inactive)
GI50 [44]: 10.7 µM (inactive)
GI50 [45]: 14 µM (inactive)
GI50 [46]: 15.8 µM (inactive)
GI50 [47]: 12.8 µM (inactive)
GI50 [48]: 8.11 µM (inactive)
GI50 [49]: 16 µM (inactive)
GI50 [50]: 11 µM (inactive)
GI50 [51]: 11.9 µM (inactive)
GI50 [52]: 10.8 µM (inactive)
GI50 [53]: 15.6 µM (inactive)
GI50 [54]: 10.9 µM (inactive)
GI50 [55]: 13.7 µM (inactive)
GI50 [56]: 13.3 µM (inactive)
GI50 [57]: 8.36 µM (inactive)
GI50 [58]: 1.71 µM (inactive)
